# Data: patent US12648941B2, “Piperidine urea derivatives for use as inotropic agents” (Helsinn Healthcare SA, priority 2021, dated 2026)
# Entries after “also recorded” stand apart in the source; their conditions may differ.
# Assays:
# [1] = test system: cardiomyocytes isolated from hearts of heart failure (HF) mice; experiment: Cardiomyocyte contractility (fractional shortening, % FS), heart failure (MI) cardiomyocytes; type: cell-based, mouse; conditions: 1 μM
# Protocol: (§1) Cardiomyocytes were isolated freshly from cardiac ventricles separately from SHAM and HF mice following the protocol developed by the Alliance for Cellular Signalling (AfCS Procedure Protocol ID PP00000125). From each of the 5 SHAM and 3 HF hearts a cell suspension was made and divided into 10 aliquots each, for a total of 50 aliquots from SHAM and 30 aliquots from HF hearts. These aliquots were treated with vehicle, AC01/HM01 or D-Lys3-GHPR-6+AC01/HM01 as stated and used for the subsequent physiological and biochemical experiments.
# AC01/HM01 was suspended in phosphate buffer saline solution (PBS: in mM: NaCl 137, KCl 7, Na2HPO4 10, KH2PO4 […]) and diluted to obtain 3 different concentrations: 0.2, 0.5 or 1 μM in Tyrode solution. We used a concentration range within 0.2-1 μM to ensure that the receptor was activated. […]
# Line scan fluorescence images were acquired using a confocal microscope (Biorad; 40× oil immersion lenses). […] ImageJ software (open source software developed by NIH, Bethesda, USA) was used to quantify changes in fluorescence (Ca^2+ transients) and contractility of single cardiomyocytes.
# The contractility of cardiomyocytes was measured as the percent of length shortening (fractional shortening; % FS). […]
# growth hormone (GH) = experiment: Phase 1 SAD pharmacodynamics, serum GH (ELISA); type: in vivo, human
# Protocol: (§2) Blood samples for determination of growth hormone (GH), insulin-like growth factor-1 (IGF-1), adrenocorticotropic hormone (ACTH), prolactin, cortisol and aldosterone in serum at pre-dose and 0.5, 1, 2, 3, 4, 6 and 24 hours post-dose were collected by venous puncture. All biomarkers were determined using enzyme linked immunosorbent assays (ELISA). Simplified nutritional appetite questionnaire based on appetite assessments at Day −1 after dinner, and on Day 1 pre-dose, 1, 2, 4, 8, and 24 hours after dosing. Stool diary starting on Day 1 until discharge on Day 4.
# aldosterone = experiment: Phase 1 SAD pharmacodynamics, serum aldosterone (ELISA); type: in vivo, human
# Protocol: as §2
# [2] = test system: cardiomyocytes isolated from hearts of SHAM mice; experiment: Intracellular Ca2+ transients (Fluo-3, confocal line scan); type: cell-based, mouse
# Protocol: as §1
# (§3) AC01/HM01 was suspended in phosphate buffer saline solution (PBS: in mM: NaCl 137, KCl 7, Na2HPO4 10, KH2PO4 […]) and diluted to obtain 3 different concentrations: 0.2, 0.5 or 1 μM in Tyrode solution. We used a concentration range within 0.2-1 μM to ensure that the receptor was activated. […] Prior to contractility and Ca^2+ signaling measurements and biochemical assays, cardiomyocyte suspensions from SHAM and HF hearts were randomized to 3 types of treatments: vehicle, AC01/HM01, or D-Lys3-GHPR-6+AC01/HM01. The treatment with different agents occurred for 15 minutes at room temperature. Some cell suspension aliquots were flash frozen in liquid N2 and stored at −80° C. for later biochemistry analyses. All the experiments were conducted blinded regarding the treatment of cardiomyocytes.
# Fresh isolated cardiomyocytes were aliquoted in 1.5 ml tubes and incubated with a cell permeable form of fluorescent Ca2+ indicator Fluo-3 AM followed by washing for >5 min. […] ImageJ software (open source software developed by NIH, Bethesda, USA) was used to quantify changes in fluorescence (Ca2+ transients) and contractility of single cardiomyocytes.
# Ca^2+ transients were measured using a confocal microscope (Biorad) in line scan mode. […] The fluorescent signal (F/Fo) was calculated as the ratio between resting fluorescence before the start of the Ca^2+ transient (FO) and the peak fluorescence (F) of the Ca^2+ transient.
# Protein kinase A (PKA) = experiment: PKA activity assay in cardiomyocytes (ELISA-based kit); type: cell-based, mouse; conditions: isolated cardiomyocytes; 1 μM
# Protocol: as §3
# Elisa-based PKA kinase activity assay kit (ab139435, Abcam, Cambridge, UK) was employed to determine PKA activity in cardiomyocytes. Aliquots of frozen cardiomyocytes were thawed and mixed with a lysis buffer containing (mM) the following: 20 MOPS, 50 β-glycerolphosphate, 5 EGTA, 2 EDTA, 1 benzamidine, 1 sodium orthovanadate, 1% NP40, 1 DTT, complete protease inhibitor cocktail (Roche Diagnostics, West Sussex, UK) and phosphatase inhibitor cocktail 3 (Sigma, Gillingham, UK). Approximately 2 μg of protein of each sample were assayed according to the manufacturer's instructions 27.
compound,measurement,setting,value
"COc1ccc([C@H](C)NC(=O)N(C)[C@@H]2CCN(C)CC2(C)C)c(Cl)c1Cl.Cl [AC01/HM01, 1-[(1S)-1-(2,3-dichloro-4-methoxyphenyl)ethyl]-3-methyl-3-[(4R)-1-methyl-3,3-dimethyl-4-piperidyl]-urea]","contractility, fractional shortening (FS %) vs vehicle",[1],significant increase of contractility; also recorded: positively responded
same,GH increase,growth hormone (GH); 0.3 and 0.1 mg HM01,lower increases
same,GH increase,growth hormone (GH); 1.0 and 10 mg HM01,higher
same,"mean GH curves, comparison of doses",growth hormone (GH); 1.0 vs 10 mg HM01,similar
same,time of peak GH concentrations,growth hormone (GH); after single oral administration,2-3 hours post-dose
same,concentrations of GH vs baseline,"growth hormone (GH); after single oral administration, healthy males",increased from baseline
same,concentrations of aldosterone,aldosterone; 1.0 and 10 mg HM01,rapidly increased above baseline values
same,"aldosterone increase, comparison of doses",aldosterone; 1.0 vs 10 mg,similar
same,Ca2+ transient amplitude vs vehicle,"[2]; 1 μM, with D-Lys 3 GHRP-6 pretreatment",did not have any impact on Ca^2+ transient amplitudes; also recorded: did not change the Ca^2+ transient amplitude
same,Ca2+ transient amplitude vs vehicle,"[2]; 1 μM, without D-Lys3 pretreatment",did not have any impact on Ca^2+ transient amplitudes; also recorded: did not change the Ca^2+ transient amplitude
same,Ca2+ transient amplitude vs vehicle,"[2]; all tested concentrations (0.2, 0.5, 1 μM)",no significant change in Ca^2+ transient amplitude; also recorded: did not cause alteration of Ca^2+ transient amplitudes
same,PKA activity vs vehicle,Protein kinase A (PKA),decreased; also recorded: reduction of PKA activity
